Measurements reported in ChEMBL document CHEMBL1201862, “PubChem BioAssay data set” (2004).
Active and inactive are the calls of the source.

How the values were obtained:
Chaperone protein dnaK = Chaperone protein dnaK (Escherichia coli, UniProt C3TRK2); assay: E. coli DnaK binders, calorimetric Kd – biophysical, isothermal titration calorimetry, beta-domain, full-length DnaK, orthogonal assay for DnaK modulator project, SAR follow-up (AID 1495)
[1] = target: Melanin-concentrating hormone receptor 1 (Homo sapiens, UniProt Q99705); assay: Fluorescence-based counterscreen for antagonists of the G-protein coupled receptor 7 (GPR7): cell-based high throughput dose response assay to identify antagonists of the melanin-concentrating hormone receptor 1 (MCHR1).; assay type: functional
Melanin-concentrating hormone receptor 1, sequence (Q99705 whole entry): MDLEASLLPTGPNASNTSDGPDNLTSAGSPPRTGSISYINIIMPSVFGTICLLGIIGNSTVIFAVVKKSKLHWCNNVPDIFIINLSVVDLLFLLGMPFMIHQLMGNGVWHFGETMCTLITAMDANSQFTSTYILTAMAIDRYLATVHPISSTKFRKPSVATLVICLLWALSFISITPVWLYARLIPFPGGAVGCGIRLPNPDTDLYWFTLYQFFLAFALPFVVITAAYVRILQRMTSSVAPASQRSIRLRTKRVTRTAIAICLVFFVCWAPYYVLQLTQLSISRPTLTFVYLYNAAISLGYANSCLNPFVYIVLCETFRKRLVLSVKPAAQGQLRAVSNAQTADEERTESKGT

[2] = target: Neuropeptides B/W receptor type 1 (Homo sapiens, UniProt P48145); assay: Fluorescence-based dose response cell-based high throughput screening assay to identify antagonists of the G-protein coupled receptor 7 (GPR7). [Related pubchem assays: 1952 (Screening assay (GPR7 antagonists).), 1880 (Summary AID.)]; assay type: functional
[3] = target: DNA dC->dU-editing enzyme APOBEC-3G (Homo sapiens, UniProt Q9HC16); assay: Dose Response confirmation of small molecule APOBEC3G DNA Deaminase Inhibitors via a fluorescence-based single-stranded DNA deaminase assay. [Related pubchem assays (depositor defined):AID493012, AID493028]; assay type: functional
DNA dC->dU-editing enzyme APOBEC-3G, sequence (Q9HC16 whole entry): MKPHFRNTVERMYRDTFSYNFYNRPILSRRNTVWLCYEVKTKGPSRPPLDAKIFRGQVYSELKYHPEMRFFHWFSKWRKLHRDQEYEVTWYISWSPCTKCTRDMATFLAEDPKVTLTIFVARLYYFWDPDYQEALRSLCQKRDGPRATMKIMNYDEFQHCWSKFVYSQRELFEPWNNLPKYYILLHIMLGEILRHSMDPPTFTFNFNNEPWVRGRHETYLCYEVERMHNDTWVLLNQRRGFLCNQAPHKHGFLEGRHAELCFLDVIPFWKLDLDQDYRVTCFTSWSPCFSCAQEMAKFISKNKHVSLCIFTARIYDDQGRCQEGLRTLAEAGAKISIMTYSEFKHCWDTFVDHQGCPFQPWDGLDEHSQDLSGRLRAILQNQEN

Aspartyl aminopeptidase = Aspartyl aminopeptidase (Plasmodium falciparum 3D7, UniProt Q8I2J3)
Aspartyl aminopeptidase, sequence (Q8I2J3 whole entry): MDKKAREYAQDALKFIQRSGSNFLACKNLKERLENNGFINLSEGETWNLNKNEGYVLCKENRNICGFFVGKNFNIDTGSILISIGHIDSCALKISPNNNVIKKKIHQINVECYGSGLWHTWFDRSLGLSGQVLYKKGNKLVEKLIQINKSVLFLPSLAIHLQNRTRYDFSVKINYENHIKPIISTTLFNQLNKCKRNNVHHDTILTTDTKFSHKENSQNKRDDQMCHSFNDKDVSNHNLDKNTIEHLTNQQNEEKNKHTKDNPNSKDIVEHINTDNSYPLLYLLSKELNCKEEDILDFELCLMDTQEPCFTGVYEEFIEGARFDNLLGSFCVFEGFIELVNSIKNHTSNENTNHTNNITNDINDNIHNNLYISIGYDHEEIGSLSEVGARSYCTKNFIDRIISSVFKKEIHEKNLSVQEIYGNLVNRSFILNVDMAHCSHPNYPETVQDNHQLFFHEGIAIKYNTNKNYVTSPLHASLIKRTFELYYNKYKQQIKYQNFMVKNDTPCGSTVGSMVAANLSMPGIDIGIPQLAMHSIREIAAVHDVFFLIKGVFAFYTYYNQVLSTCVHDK

[4] = target: T1, Mannose-6-phosphate isomerase (Homo sapiens, UniProt P34949); assay: MPI inhibition at elevated mannose 6-phosphate – biochemical, fluorescence intensity, high mannose 6-phosphate, primary screen (AID 1220)
T1 sequence (P34949 whole entry): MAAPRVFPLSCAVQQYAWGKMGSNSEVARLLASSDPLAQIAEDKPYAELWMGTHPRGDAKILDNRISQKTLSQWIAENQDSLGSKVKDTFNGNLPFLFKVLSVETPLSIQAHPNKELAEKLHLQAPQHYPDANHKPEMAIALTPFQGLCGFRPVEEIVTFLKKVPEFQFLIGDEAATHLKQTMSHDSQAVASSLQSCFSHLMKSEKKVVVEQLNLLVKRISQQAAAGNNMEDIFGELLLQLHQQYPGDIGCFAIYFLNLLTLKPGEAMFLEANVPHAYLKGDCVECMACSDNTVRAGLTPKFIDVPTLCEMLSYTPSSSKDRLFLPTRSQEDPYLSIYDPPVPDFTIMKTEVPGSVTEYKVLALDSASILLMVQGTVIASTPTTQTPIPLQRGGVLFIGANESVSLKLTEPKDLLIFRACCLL

[5] = target: DNA dC->dU-editing enzyme APOBEC-3A (Homo sapiens, UniProt P31941); assay: A3A deaminase inhibition for selectivity – biochemical, dose response (AID 504722); assay type: functional
[6] = target: T1, Mannose-6-phosphate isomerase; assay: MPI enzyme activity inhibition – biochemical, fluorescence intensity, coupled assay, primary screen (AID 1209)
Procathepsin L = Procathepsin L (Homo sapiens, UniProt P07711)
Procathepsin L, sequence (P07711 whole entry, the tested form may be a part): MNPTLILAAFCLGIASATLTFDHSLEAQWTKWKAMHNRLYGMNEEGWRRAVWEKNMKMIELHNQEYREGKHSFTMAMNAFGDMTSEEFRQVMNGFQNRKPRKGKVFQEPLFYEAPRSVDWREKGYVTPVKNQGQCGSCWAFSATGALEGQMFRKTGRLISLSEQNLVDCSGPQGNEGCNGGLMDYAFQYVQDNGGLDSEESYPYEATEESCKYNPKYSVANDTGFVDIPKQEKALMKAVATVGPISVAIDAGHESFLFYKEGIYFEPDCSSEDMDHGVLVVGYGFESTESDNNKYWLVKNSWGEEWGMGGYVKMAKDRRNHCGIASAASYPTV

[7] = target: T2, Polyadenylate-binding protein 1 (Homo sapiens, UniProt P11940); assay: MLLE domain peptide-binding blockers, IC50 – biochemical, fluorescence polarization, FITC-PAM2 peptide, dose response (AID 602259); assay type: functional; conditions: read-out: IC50_Mean
T2 sequence (P11940 whole entry, the tested form may be a part): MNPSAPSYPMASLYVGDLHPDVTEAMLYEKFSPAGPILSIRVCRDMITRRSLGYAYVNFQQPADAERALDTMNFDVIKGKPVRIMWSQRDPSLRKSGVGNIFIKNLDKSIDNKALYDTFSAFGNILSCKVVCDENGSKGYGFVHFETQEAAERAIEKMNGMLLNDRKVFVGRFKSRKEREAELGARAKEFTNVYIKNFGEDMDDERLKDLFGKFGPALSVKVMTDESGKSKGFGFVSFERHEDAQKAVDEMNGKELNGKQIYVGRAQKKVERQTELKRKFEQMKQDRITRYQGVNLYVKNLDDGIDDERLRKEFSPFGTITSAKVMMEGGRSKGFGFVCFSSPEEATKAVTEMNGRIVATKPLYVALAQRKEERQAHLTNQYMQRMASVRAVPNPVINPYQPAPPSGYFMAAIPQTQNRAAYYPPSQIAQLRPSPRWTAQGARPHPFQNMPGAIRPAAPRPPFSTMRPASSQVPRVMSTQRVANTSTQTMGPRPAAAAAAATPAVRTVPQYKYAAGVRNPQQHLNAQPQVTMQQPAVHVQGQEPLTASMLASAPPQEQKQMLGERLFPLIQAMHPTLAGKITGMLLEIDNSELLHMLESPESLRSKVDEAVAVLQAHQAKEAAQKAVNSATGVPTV

[8] = target: T2, Polyadenylate-binding protein 1; assay: MLLE binding blockers, Cy5 peptide tracer – biochemical, fluorescence polarization, Cy5-PAM2 peptide, secondary, miRNA deadenylation inhibitor project, dose response (AID 602260); assay type: functional; conditions: read-out: IC50_Mean
cells = assay type: functional
Caspase-7 = Caspase-7 (Homo sapiens, UniProt P55210); assay: activation of caspase-7 zymogen – biochemical, absorbance, counter-screen for procaspase-3 activator project, dose response (AID 489013)
Caspase-7, sequence (P55210 24-198 limits assumed): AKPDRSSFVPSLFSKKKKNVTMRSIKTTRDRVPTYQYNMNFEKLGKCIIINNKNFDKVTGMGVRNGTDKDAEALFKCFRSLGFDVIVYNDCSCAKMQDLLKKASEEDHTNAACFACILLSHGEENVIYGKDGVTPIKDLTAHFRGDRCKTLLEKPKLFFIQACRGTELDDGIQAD
Caspase-7, sequence (P55210 207-303 limits assumed): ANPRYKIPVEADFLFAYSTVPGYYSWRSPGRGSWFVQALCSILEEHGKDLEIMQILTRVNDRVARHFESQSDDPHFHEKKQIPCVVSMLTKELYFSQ

Caspase-3 = target: T3, Caspase-3 (Homo sapiens, UniProt P42574); assay: activation of caspase-3 zymogen – biochemical, absorbance, dose response (AID 489014)
T3 sequence (P42574 whole entry): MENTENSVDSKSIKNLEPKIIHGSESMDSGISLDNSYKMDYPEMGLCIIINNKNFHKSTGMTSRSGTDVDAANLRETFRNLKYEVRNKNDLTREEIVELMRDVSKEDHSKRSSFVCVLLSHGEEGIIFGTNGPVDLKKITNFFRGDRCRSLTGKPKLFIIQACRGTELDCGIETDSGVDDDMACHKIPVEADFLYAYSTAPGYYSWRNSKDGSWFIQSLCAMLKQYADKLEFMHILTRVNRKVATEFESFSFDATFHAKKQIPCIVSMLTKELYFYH

[9] = target: T1, Mannose-6-phosphate isomerase; assay: phosphomannose isomerase inhibition – biochemical, fluorescence intensity, confirmation (AID 1535)
[10] = target: Phosphoethanolamine/phosphocholine phosphatase (Homo sapiens, UniProt Q8TCT1); assay: SAR assay for compounds that inhibit PHOSPHO1. [Related pubchem assays (depositor defined):AID1545, AID1565, AID1574]
Phosphoethanolamine/phosphocholine phosphatase, sequence (Q8TCT1 whole entry): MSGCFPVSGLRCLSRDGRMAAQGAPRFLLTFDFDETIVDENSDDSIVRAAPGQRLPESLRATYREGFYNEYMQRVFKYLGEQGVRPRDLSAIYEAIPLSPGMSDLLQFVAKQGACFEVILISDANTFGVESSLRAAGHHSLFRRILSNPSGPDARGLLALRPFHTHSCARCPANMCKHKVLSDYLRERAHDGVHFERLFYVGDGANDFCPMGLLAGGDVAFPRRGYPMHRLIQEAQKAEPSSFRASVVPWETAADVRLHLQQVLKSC

Phosphomannomutase 2 = Phosphomannomutase 2 (Homo sapiens, UniProt O15305); assay: Counter screen SAR assay for PMM2 inhibitors via a fluorescence intensity assay. [Related pubchem assays (depositor defined):AID1545, AID1574]
[11] = target: Kappa-type opioid receptor (Homo sapiens, UniProt P41145); assay: SAR analysis of small molecule agonists of the kappa opioid receptor via a luminescent beta-arrestin assay - Set 2. [Related pubchem assays (depositor defined):AID1777, AID1785, AID1786, AID1966, AID2133, AID2136, AID2284, AID449737]; assay type: functional
[12] = target: Eukaryotic translation initiation factor 4H (Homo sapiens, UniProt Q15056); assay: inhibitors of translation initiation factor eIF4H – SAR follow-up (AID 435011); assay type: functional
[13] = target: T2, Polyadenylate-binding protein 1; assay: PABP inhibition in translation initiation, SAR follow-up (AID 435018); assay type: functional
[14] = target: T4, Intestinal-type alkaline phosphatase (Homo sapiens, UniProt P09923); assay: activation of human intestinal alkaline phosphatase – biochemical, luminescent, uHTS hits, set 2, dose response (AID 488817); assay type: functional;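 further: potency of activators that raise enzyme activity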
T4 sequence (P09923 whole entry): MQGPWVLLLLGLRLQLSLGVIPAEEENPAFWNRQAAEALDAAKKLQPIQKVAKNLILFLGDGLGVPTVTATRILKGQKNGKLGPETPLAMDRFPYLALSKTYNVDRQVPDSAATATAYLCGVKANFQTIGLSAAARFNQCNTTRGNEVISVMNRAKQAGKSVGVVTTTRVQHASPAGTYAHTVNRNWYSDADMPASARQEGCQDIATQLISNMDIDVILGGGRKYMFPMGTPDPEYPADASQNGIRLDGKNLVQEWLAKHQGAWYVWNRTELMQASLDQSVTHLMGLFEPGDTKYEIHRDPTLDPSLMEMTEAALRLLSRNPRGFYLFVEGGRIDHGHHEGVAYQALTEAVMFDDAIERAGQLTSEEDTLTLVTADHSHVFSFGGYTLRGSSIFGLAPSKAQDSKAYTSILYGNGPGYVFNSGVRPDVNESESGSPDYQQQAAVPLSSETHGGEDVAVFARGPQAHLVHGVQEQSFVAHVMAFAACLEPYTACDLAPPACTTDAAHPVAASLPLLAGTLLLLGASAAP

[15] = target: T4, Intestinal-type alkaline phosphatase; assay: human intestinal alkaline phosphatase activators, dose response, biochemical, luminescence, uHTS hits (AID 463120); assay type: functional
[16] = target: T5, Alkaline phosphatase, tissue-nonspecific isozyme (Homo sapiens, UniProt P05186); assay: activation of tissue-nonspecific alkaline phosphatase – biochemical, TNAP isozyme, human IAP uHTS hits, selectivity assay for human IAP activator project, dose response (AID 488886); assay type: functional;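 further: potency of compounds raising TNAP activity as a selectivity check on IAP activators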
T5 sequence (P05186 whole entry): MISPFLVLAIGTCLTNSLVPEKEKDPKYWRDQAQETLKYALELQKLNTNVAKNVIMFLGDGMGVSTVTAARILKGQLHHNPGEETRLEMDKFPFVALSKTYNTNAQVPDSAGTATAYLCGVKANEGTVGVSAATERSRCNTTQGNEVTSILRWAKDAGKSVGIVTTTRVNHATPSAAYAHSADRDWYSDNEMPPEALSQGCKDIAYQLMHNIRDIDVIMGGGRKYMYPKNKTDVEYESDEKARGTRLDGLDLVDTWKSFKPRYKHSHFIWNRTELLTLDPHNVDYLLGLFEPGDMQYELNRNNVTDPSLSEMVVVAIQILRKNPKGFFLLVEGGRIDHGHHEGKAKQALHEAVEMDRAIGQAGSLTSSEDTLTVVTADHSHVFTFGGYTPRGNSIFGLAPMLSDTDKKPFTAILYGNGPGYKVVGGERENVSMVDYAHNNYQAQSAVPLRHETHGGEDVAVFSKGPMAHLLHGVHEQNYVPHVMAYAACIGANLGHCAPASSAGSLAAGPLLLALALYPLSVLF

[17] = HPDE-C7 pancreatic duct cell viability loss – fluorescence, HTS (AID 430); assay type: functional, cell-based; conditions: Homo sapiens
[18] = target: Intestinal-type alkaline phosphatase (Mus musculus, UniProt P24822); assay: PubChem AID 488874; assay type: functional
Intestinal-type alkaline phosphatase (Mus musculus, UniProt P24822), sequence (P24822 whole entry): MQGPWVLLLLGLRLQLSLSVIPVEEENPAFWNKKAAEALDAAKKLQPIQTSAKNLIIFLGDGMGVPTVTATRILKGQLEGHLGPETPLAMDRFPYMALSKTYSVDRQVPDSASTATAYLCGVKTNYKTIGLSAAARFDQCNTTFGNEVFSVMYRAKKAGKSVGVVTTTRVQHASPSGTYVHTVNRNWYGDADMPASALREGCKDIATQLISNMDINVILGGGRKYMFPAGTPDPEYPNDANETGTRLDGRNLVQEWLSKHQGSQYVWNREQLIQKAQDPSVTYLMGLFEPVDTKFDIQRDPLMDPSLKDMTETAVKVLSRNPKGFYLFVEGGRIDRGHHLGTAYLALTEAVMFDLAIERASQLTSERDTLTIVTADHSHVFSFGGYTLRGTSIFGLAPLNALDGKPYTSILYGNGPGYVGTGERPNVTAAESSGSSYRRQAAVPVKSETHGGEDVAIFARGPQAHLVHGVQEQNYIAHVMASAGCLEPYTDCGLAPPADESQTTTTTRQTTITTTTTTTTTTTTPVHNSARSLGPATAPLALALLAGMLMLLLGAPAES

[19] = viability loss of HPDE-C7K cells – cell-based, fluorescence, HTS, primary screen (AID 431); assay type: functional; conditions: Homo sapiens
[20] = target: G-protein coupled receptor 55 (Homo sapiens, UniProt Q9Y2T6); assay: selective activators of receptor GPR55 – imaging, U2OS cells, beta-arrestin-GFP redistribution, primary screen (AID 1961); assay type: functional
G-protein coupled receptor 55, sequence (Q9Y2T6 whole entry): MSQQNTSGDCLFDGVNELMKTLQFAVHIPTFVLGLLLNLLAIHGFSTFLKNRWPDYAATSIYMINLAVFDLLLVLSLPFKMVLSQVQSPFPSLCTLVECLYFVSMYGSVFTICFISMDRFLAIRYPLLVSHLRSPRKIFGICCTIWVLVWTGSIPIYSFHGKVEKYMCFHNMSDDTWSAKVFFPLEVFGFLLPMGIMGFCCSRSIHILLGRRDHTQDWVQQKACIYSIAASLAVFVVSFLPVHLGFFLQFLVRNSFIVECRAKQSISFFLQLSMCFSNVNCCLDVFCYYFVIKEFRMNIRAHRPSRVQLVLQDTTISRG

Chaperone protein dnaK, sequence (C3TRK2 whole entry): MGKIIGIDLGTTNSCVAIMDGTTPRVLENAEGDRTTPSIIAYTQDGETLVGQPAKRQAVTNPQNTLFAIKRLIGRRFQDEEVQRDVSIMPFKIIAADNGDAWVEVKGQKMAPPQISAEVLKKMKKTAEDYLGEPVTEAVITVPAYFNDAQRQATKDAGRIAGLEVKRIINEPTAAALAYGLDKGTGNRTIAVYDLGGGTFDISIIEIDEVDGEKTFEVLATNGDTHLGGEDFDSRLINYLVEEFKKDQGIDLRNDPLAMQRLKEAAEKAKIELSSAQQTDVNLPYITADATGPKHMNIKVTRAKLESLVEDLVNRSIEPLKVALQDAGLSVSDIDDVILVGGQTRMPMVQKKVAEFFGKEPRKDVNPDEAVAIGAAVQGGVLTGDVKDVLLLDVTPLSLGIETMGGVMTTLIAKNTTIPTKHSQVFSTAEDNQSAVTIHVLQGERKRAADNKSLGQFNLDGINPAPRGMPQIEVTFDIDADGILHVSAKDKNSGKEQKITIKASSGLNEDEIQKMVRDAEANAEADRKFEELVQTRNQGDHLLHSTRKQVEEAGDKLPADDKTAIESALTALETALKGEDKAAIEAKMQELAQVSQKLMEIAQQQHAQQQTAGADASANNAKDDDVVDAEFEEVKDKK

CC(Cc1ccc(F)cc1)NC(=O)c1cccs1 (configuration not stated)
Kd (Chaperone protein dnaK): 28 µM (inactive)

O=C(NCc1cccnc1)c1cc(-c2ccc(Cl)cc2)oc1C(F)(F)F
IC50 [1]: 11.9 µM (not active)
IC50 [2]: > 14.6 µM (not active)

Cc1cc(C)n2c(S)nnc2n1
IC50 [3]: 17 µM (active)
IC50 (Aspartyl aminopeptidase): 6.41 µM (active)
IC50 [4]: > 50 µM (not active)
IC50 [5]: > 100 µM (inactive)
IC50 [6]: 43.2 µM (active)
IC50 (Procathepsin L): > 59.6 µM (not active)

COc1ccc(C2=NC(=O)/C(=C\c3cc(OC)c(OC)c(OC)c3)O2)cc1
IC50 [7]: > 66 µM (inactive)
IC50 [8]: > 66 µM (inactive)
IC50 (cells): 1.18 µM (active)
EC50 (Caspase-7): > 85.2 µM (inactive)
EC50 (Caspase-3): 0.42 µM (active)

O=C1c2ccccc2C(=O)c2c1ccc1c(=O)n(-c3ccc(Cl)cc3)sc21
IC50 [9]: > 50 µM (inactive)
IC50 [10]: 0.82 µM (active)
IC50 (Phosphomannomutase 2): > 100 µM (inactive)

O=C(CN(Cc1cccs1)C(=O)c1cccnc1)NC1CCCCC1
EC50 [11]: > 20 µM (inactive)

COCc1ccc(C(=O)OCC(=O)Nc2ccc([N+](=O)[O-])cc2OC)cc1
IC50 [12]: > 100 µM (inactive)
IC50 [13]: > 100 µM (inactive)

O=c1cc(-c2ccccc2)[nH]n1-c1nc2ccccc2[nH]1
EC50 [14]: 14.8 µM (active)
EC50 [15]: 11.5 µM (active)
EC50 [16]: 17.1 µM (active)
EC50 [17]: 2.73 µM (active)
IC50 [18]: 36.8 µM (active)
EC50 [19]: 2.21 µM (active)

NC(=S)N/N=C/c1c[nH]c2ccc(OCc3ccccc3)cc12
EC50 [20]: 0.874 µM (active)
